# Literature values, collected in patent publication US20100284970A1, “BEN[…] H1 RECEPTOR AND/OR NS4B PROTEIN” (AUSPEX PHARMACEUTICALS, INC., priority 2009, published 2010).
# Target: T1, hepatitis C virus NS4B protein (Hepatitis C virus genotype 1b, UniProt Q9WMX2)
# T1 construct: hepatitis C virus NS4B protein
# Settings: Einav et al., Nature Biotechnology, 2008, 26, 1019-1027
# T1 sequence (Q9WMX2 1712-1972): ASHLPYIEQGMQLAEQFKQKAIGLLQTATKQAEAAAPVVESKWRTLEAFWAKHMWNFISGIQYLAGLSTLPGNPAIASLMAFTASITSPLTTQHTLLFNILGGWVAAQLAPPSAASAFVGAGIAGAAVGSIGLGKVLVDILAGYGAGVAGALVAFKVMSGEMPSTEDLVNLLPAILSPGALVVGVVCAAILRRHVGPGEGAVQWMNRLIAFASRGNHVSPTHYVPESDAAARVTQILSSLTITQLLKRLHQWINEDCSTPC
smiles,measurement,value
"Clc1ccc(Cn2c(CN3CCCC3)nc3ccccc32)cc1 [Clemizole, 1-[(4-chlorophenyl)methyl]-2-(1-pyrrolidinylmethyl)benzimidazole]",binding of hepatitis C virus RNA to hepatitis C virus NS4B protein,inhibit the binding of hepatitis C virus RNA to hepatitis C virus NS4B protein
